Results taken from patent US20020026053A1, “Novel 3-(substituted) -2- indolinones compounds and use thereof as inhibitors of protein kinase activity” (priority 1997, published 2002).

Target: T1, Met receptor (EGFR/Met chimeric cells, EMR) (Homo sapiens, UniProt P08581)
T1 construct: expressed in transfected cells; the other entry of the earlier key: EGFR (P00533, Epidermal growth factor receptor)
Assay: Met Autophosphorylation Assay
Type: biochemical
Outline: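 Met phosphorylation was measured by capture ELISA. Lysates (90 μg/100 μl, HNTG plus 1 mM PMSF) from transiently transfected EGFR/Met chimera (EMR) cells were bound for 60 min at room temperature to wells holding rabbit anti-Met (C-28) on goat anti-rabbit coat. Phosphotyrosine was the read-out.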

T1 sequence (P08581 with tags, fused parts or gaps): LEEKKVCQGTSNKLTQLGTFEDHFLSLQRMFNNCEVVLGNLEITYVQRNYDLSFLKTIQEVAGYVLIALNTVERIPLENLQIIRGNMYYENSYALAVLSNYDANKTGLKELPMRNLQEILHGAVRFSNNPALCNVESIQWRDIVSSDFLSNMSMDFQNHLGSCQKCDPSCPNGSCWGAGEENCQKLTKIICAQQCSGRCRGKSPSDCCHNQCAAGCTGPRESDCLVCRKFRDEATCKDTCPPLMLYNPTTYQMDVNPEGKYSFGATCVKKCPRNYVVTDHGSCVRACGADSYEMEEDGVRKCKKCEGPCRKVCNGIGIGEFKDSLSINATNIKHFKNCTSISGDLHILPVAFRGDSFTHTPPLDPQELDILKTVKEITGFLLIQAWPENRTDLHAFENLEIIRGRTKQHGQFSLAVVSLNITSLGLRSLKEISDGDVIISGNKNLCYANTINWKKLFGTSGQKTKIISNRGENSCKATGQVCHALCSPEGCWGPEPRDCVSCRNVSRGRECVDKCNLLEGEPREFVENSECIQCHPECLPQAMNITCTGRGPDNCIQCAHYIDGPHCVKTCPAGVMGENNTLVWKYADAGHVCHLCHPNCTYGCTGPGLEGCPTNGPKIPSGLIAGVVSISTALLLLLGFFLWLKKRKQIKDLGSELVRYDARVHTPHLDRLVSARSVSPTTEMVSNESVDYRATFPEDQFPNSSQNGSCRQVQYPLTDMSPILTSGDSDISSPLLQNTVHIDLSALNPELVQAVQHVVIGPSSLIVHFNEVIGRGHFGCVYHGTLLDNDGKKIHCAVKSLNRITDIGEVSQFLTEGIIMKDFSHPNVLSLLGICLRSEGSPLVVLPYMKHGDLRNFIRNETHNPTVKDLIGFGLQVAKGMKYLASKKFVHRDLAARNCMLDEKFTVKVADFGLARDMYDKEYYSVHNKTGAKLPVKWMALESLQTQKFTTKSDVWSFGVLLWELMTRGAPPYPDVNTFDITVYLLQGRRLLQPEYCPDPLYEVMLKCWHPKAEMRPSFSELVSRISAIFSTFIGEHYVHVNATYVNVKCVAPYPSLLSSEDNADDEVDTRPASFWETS

SMILES | Met Kinase % Inhibition (P.130) [%]
O=C1Nc2ccc(CCCl)cc2C1=Cc1cccc(C(F)(F)F)c1 [10735/G05] | 22.2
O=C1Nc2ccc(CCCl)cc2C1=Cc1cc(C(F)(F)F)cc(C(F)(F)F)c1 [10735/G06] | 36.1
